From US12410160B2 (Gilead Sciences, Inc., priority 2021, dated 2025)
Like-named read-outs stand apart in the source and are kept apart here.

What was measured:
[1] = pKa analysis by capillary electrophoresis (pKa PRO Analyzer, co-solvent method); assay type: physicochemical; conditions: co-solvent method (60% to 30% methanol buffers); for pKa: methanol/aqueous co-solvent buffers
Procedure: The 10 mM DMSO stock solutions of test articles (TAs) were diluted 100-fold with either 2 mM HCl or 2 mM NaOH and methanol. The final concentration of methanol was 60%, TA concentration was 100 μM, and DMSO concentration was 1%. The TAs were transferred into 24 consecutive wells of a 96-well plate for analysis using the co-solvent method. […] All data was obtained using a pKa. PRO Analyzer (AATI, Ankey, IA) by performing four consecutive CE runs from 60% to 30% co-solvent buffers. Norfloxacin was used as a daily performance-indicating standard. The pKa values were predicted by using pKa. Estimator® software (AATI, Ankey, IA) by relating molecular weight of the TA to its mobility.

[2] = biological target: human KHK-C (Homo sapiens (Human), UniProt P50053); assay: KHK Biochemical Assay (IC50), ADP-Glo, KHK-C; conditions: average of at least two separate assays
Sequence of human KHK-C (P50053 whole entry): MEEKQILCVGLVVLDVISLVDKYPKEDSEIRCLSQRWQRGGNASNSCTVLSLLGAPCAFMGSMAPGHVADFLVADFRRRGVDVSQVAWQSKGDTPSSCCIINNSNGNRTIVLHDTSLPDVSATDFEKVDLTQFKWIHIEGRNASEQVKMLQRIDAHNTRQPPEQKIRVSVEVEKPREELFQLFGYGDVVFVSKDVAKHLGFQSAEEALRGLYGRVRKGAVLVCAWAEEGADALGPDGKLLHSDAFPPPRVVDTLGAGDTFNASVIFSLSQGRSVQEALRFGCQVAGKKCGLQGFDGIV
In short: (§1)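 Luminescent ADP-Glo read-out of ADP made by His-tagged KHK (BL21 (DE3) expression, Ni-NTA). Enzyme and compound sat together 30 min before ATP/fructose addition, then reacted 4 h at RT in Hepes pH 7.4 buffer with KCl, MgCl2, Triton-X. Quench 1 h, detection 1 h.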

[3] = biological target: human KHK-A (Homo sapiens (Human), UniProt P50053); assay: KHK Biochemical Assay (IC50), ADP-Glo, KHK-A; conditions: average of at least two separate assays
Sequence of human KHK-A (P50053 other isoform, or with tags, fused parts or gaps): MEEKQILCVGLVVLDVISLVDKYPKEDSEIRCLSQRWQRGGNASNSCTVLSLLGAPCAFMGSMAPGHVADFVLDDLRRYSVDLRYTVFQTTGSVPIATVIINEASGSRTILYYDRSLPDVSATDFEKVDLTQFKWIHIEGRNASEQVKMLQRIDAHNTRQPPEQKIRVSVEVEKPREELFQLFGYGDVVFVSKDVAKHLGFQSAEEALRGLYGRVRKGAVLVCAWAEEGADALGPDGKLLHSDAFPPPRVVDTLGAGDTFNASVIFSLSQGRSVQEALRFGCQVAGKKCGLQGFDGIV
In short: as §1

[4] = system: HepG2 cells; assay: F1P Cell-Based Assay (EC50), 13C6-fructose-1-phosphate in HepG2 cells (cell culture medium or 50% human plasma); conditions: Homo sapiens
[5] = biological target: KHK-C expressed in NRK-52E cells (Homo sapiens (Human), UniProt P50053); assay: KHK-C Cell-based Assay (EC50), NRK CTG, fructose-mediated ATP-depletion
Sequence of KHK-C expressed in NRK-52E cells (P50053 whole entry): as the sequence (P50053 whole entry) above

[6] = pH range 1.7-11.2, read-out: 1st pKa
[7] = HepG2, HepG2 cells, 50% human plasma, read-out: F1P 50% HP EC50
[8] = HepG2, read-out: F1P 10% FBS EC50, HepG2 cells, cell culture medium (10% FBS)
[9] = pH range 1.7-11.2, read-out: 2nd pKa

| Structure (SMILES) | pKa [1, 6] | IC50 ([2]; ADP-Glo) | IC50 ([3]; ADP-Glo) | EC50 [4, 7] | EC50 [4, 8] | EC50 [5] | pKa [1, 9] | IC50 [2] | IC50 [3] | 1st pKa ([1]; pH range 1.7-11.2) | EC50 ([5]; read-out: NRK CTG EC50, NRK-52E cells, Cell-Titer Glo, 25 mM fructose, 48 hours) |
| --- | --- | --- | --- | --- | --- | --- | --- | --- | --- | --- | --- |
| C[C@H]1[C@H](O)CN1c1nc(-c2ccc([C@]3(N)CCS(=O)(=O)C3)cc2)c2c(n1)C(F)(F)CC2 (single isomer, unassigned) [Example 795] | 4.9 | 4.6 nM | 24.1 nM | 88.8 nM | 52.7 nM | 54.5 nM | – | – | – | – | – |
| C[C@H]1CCN1c1nc2c(c(-c3ccns3)n1)CCC2 [Example 13, (S)-5-(2-(2-methylazetidin-1-yl)-6,7-dihydro-5H-cyclopenta[d]pyrimidin-4-yl)isothiazole] | 3.77 | 40.8 nM | 34 nM | – | – | 89.4 nM | – | – | – | – | – |
| C[C@H]1CCN1c1nc2c(c(-c3cnn(C)c3)n1)CCC2 [Example 23, (S)-4-(1-methyl-1H-pyrazol-4-yl)-2-(2-methylazetidin-1-yl)-6,7-dihydro-5H-cyclopenta[d]pyrimidine] | 4.97 | 66.5 nM | 68.9 nM | – | – | 197 nM | – | – | – | – | – |
| C[C@H]1CCN1c1nc2c(c(-c3cn4ccnc4s3)n1)CCC2 [Example 121, (S)-2-(2-(2-methylazetidin-1-yl)-6,7-dihydro-5H-cyclopenta[d]pyrimidin-4-yl)imidazo[2,1-b]thiazole] | 3.68 | 24.1 nM | 29.3 nM | – | – | 87.3 nM | 5.35 | – | – | – | – |
| C[C@H]1CCN1c1nc2c(c(-c3ccc(C4(N)CC4)cc3)n1)CCC2 [Example 295, (S)-1-(4-(2-(2-methylazetidin-1-yl)-6,7-dihydro-5H-cyclopenta[d]pyrimidin-4-yl)phenyl)cyclopropan-1-amine] | 4.25 | 1.4 nM | 2.6 nM | – | – | 6.2 nM | 8.01 | – | – | – | – |
| C[C@H]1CCN1c1nc2c(c(-c3cccc(CN)c3)n1)CCC2 [Example 329, [3-[2-[(2S)-2-methylazetidin-1-yl]-6,7-dihydro-5H-cyclopenta[d]pyrimidin-4-yl]phenyl]methanamine] | 4.12 | 18.5 nM | 24.5 nM | – | – | 339 nM | 9.27 | – | – | – | – |
| C[C@H]1CCN1c1nc2c(c(-c3ccc4cnc(O)cc4c3)n1)CCC2 [Example 380, 6-[2-[(2S)-2-methylazetidin-1-yl]-6,7-dihydro-5H-cyclopenta[d]pyrimidin-4-yl]isoquinolin-3-ol] | 4.21 | 7.9 nM | 13 nM | – | – | 75.7 nM | 9.04 | – | – | – | – |
| C[C@H]1CCN1c1nc2c(c(-c3ccc4c(O)nc(O)cc4c3)n1)CCC2 [Example 381, 6-[2-[(2S)-2-methylazetidin-1-yl]-6,7-dihydro-5H-cyclopenta[d]pyrimidin-4-yl]isoquinoline-1,3-diol] | 4.12 | 89.7 nM | 18.9 nM | – | – | > 5000 nM | 8.07 | – | – | – | – |
| C[C@H]1CCN1c1nc2c(c(-c3ccc4c(c3)OCC4N)n1)CCC2 (stereo partly drawn) [Example 754, 6-[2-[(2S)-2-methylazetidin-1-yl]-6,7-dihydro-5H-cyclopenta[d]pyrimidin-4-yl]-2,3-dihydrobenzofuran-3-amine] | 4.2 | – | – | 11.7 nM | – | 14.6 nM | – | 1.9 nM | – | – | – |
| C[C@H]1[C@H](F)CN1c1nc(-c2ccc(C(N)CS(C)(=O)=O)cc2)c2c(n1)C(F)(F)CC2 (stereo partly drawn) [Example 773, 1-(4-(7,7-difluoro-2-((2S,3R)-3-fluoro-2-methylazetidin-1-yl)-6,7-dihydro-5H-cyclopenta[d]pyrimidin-4-yl)phenyl)-2-(methylsulfonyl)ethan-1-amine] | 6.3 | – | – | 24.6 nM | 12.7 nM | – | – | 2.3 nM | 8.6 nM | – | – |
| C[C@H]1[C@H](O)CN1c1nc(-c2ccc3c(c2)CCNC3C(F)F)c2c(n1)C(F)(F)CC2 (stereo partly drawn) [Example 835, (2S,3R)-1-(4-(1-(difluoromethyl)-1,2,3,4-tetrahydroisoquinolin-6-yl)-7,7-difluoro-6,7-dihydro-5H-cyclopenta[d]pyrimidin-2-yl)-2-methylazetidin-3-ol] | 6 | 7.5 nM | – | 65.2 nM | 25.2 nM | – | – | – | – | – | – |

More lines, now with the values ahead:

| pKa [1, 6] | IC50 ([2]; ADP-Glo) | IC50 ([3]; ADP-Glo) | EC50 [4, 7] | EC50 [4, 8] | EC50 [5] | pKa [1, 9] | IC50 [2] | IC50 [3] | 1st pKa ([1]; pH range 1.7-11.2) | EC50 ([5]; read-out: NRK CTG EC50, NRK-52E cells, Cell-Titer Glo, 25 mM fructose, 48 hours) | Structure (SMILES) |
| --- | --- | --- | --- | --- | --- | --- | --- | --- | --- | --- | --- |
| 4.52 | 73.1 nM | 55.1 nM | – | – | 144 nM | – | – | – | – | – | C[C@H]1CCN1c1nc2c(c(-c3cc[nH]n3)n1)CCC2 [Example 18, (S)-2-(2-methylazetidin-1-yl)-4-(1H-pyrazol-3-yl)-6,7-dihydro-5H-cyclopenta[d]pyrimidine] |
| 2.86 | 99.1 nM | 147 nM | – | – | 288 nM | 4.74 | – | – | – | – | C[C@H]1CCN1c1nc2c(c(-c3ccncc3)n1)CCC2 [Example 22, (S)-2-(2-methylazetidin-1-yl)-4-(pyridin-4-yl)-6,7-dihydro-5H-cyclopenta[d]pyrimidine] |
| 4.25 | 2.6 nM | 6 nM | – | – | 10.9 nM | 6.48 | – | – | – | – | C[C@H]1CCN1c1nc2c(c(-c3ccc(C4(N)COC4)cc3)n1)CCC2 [Example 131, (S)-3-(4-(2-(2-methylazetidin-1-yl)-6,7-dihydro-5H-cyclopenta[d]pyrimidin-4-yl)phenyl)oxetan-3-amine] |
| 3.59 | 18.7 nM | 12.3 nM | – | – | 35.3 nM | 6.43 | – | – | – | – | C[C@H]1CCN1c1nc2c(c(-c3ccc4c(N)nc(N)nc4c3)n1)CCC2 [Example 147, (S)-7-(2-(2-methylazetidin-1-yl)-6,7-dihydro-5H-cyclopenta[d]pyrimidin-4-yl)quinazoline-2,4-diamine] |
| 3.69 | 23.8 nM | 22.7 nM | – | – | 17.1 nM | 9.16 | – | – | – | – | C[C@H]1CCN1c1nc2c(c(-c3cccc(CN4CCC4)c3)n1)CCC2 [Example 347, 4-[3-(azetidin-1-ylmethyl)phenyl]-2-[(2S)-2-methylazetidin-1-yl]-6,7-dihydro-5H-cyclopenta[d]pyrimidine] |
| 4.66 | – | – | – | – | 23.6 nM | 11.2 | 5.2 nM | 10.9 nM | – | – | C[C@H]1CCN1c1nc2c(c(-c3ccc(CNS(C)(=O)=O)s3)n1)CCC2 [Example 460, N-[[5-[2-[(2S)-2-methylazetidin-1-yl]-6,7-dihydro-5H-cyclopenta[d]pyrimidin-4-yl]-2-thienyl]methyl]methanesulfonamide] |
| 3.9 | – | – | – | – | 116 nM | – | 17.2 nM | – | – | – | C[C@H]1CCN1c1nc2c(c(-c3cn(C4CNC4)nn3)n1)CCC2 [Example 461, (S)-4-(1-(azetidin-3-yl)-1H-1,2,3-triazol-4-yl)-2-(2-methylazetidin-1-yl)-6,7-dihydro-5H-cyclopenta[d]pyrimidine] |
| 8.2 | – | – | – | – | 225 nM | – | – | – | – | – | C[C@H]1[C@H](O)CN1c1nc(-c2cn(C3CNC3)nn2)c2c(n1)C(F)(F)CC2 [Example 647, (2S,3R)-1-[4-[1-(azetidin-3-yl)triazol-4-yl]-7,7-difluoro-5,6-dihydrocyclopenta[d]pyrimidin-2-yl]-2-methyl-azetidin-3-ol] |
| 7.1 | – | – | – | – | 37 nM | – | 30.1 nM | – | – | – | C[C@H]1CCN1c1nc2c(c(-c3ccc(C4COCCN4)cc3)n1)CCC2 (stereo partly drawn) [Example 755, 3-[4-[2-[(2S)-2-methylazetidin-1-yl]-6,7-dihydro-5H-cyclopenta[d]pyrimidin-4-yl]phenyl]morpholine] |
| 4.2 | – | – | – | – | 32.1 nM | – | 18.7 nM | – | – | – | C[C@H]1CCN1c1nc2c(c(-c3ccc(C(N)CS(C)(=O)=O)cc3)n1)CCC2 (stereo partly drawn) [Example 768, 1-(4-(2-((S)-2-methylazetidin-1-yl)-6,7-dihydro-5H-cyclopenta[d]pyrimidin-4-yl)phenyl)-2-(methylsulfonyl)ethan-1-amine] |
| 6.7 | – | – | 19 nM | 15.7 nM | – | – | 1.8 nM | – | – | – | C[C@H]1[C@H](O)CN1c1nc(-c2ccc(C3(C#N)CNC3)cc2)c2c(n1)C(F)(F)CC2 [Example 777, 3-(4-(7,7-difluoro-2-((2S,3R)-3-hydroxy-2-methylazetidin-1-yl)-6,7-dihydro-5H-cyclopenta[d]pyrimidin-4-yl)phenyl)azetidine-3-carbonitrile] |
| – | 0.2 nM | 7.3 nM | – | – | – | – | – | – | 4.7 | 16.4 nM | C[C@H]1[C@H](F)CN1c1nc(-c2ccc([C@]3(N)C[S@@](=N)(=O)C3)cc2)c2c(n1)C(F)(F)CC2 [Example 797, (1R,3s)-3-amino-3-(4-(7,7-difluoro-2-((2S,3R)-3-fluoro-2-methylazetidin-1-yl)-6,7-dihydro-5H-cyclopenta[d]pyrimidin-4-yl)phenyl)-1-imino-1λ^6-thietane 1-oxide] |
